By IC50 is commonly meant the concentration at which inhibition is half-maximal. By EC30 is commonly meant the concentration at which the effect reaches the 30% level.

Results on 10 compounds are retold here after patent US9776972B2, “Pyrazole derivatives as arginine methyltransferase inhibitors and uses thereof” (priority 2013, dated 2017).

One assay deals with human PRMT8 (Homo sapiens, UniProt Q9NR22). The assay is described as follows: PRMT8 Biochemical Assay (3H-SAM Flashplate, peptide substrate). The settings on record: single experiment or average of multiple experiments. From the text:
S-adenosylmethionine (SAM), S-adenosylhomocysteine (SAH), bicine, Tween20, dimethylsulfoxide (DMSO), bovine skin gelatin (BSG), isopropyl-β-D-thiogalactopyranoside (IPTG), and Tris(2-carboxyethyl)phosphine hydrochloride solution (TCEP) were purchased from Sigma-Aldrich at the highest level of purity possible. ^3H-SAM was purchase from American Radiolabeled Chemicals with a specific activity of 80 Ci/mmol. 384-well streptavidin Flashplates were purchased from PerkinElmer.
Peptide representative of human histone H4 residues 31-45 was synthesized with an N-terminal linker-affinity tag motif and a C-terminal amide cap by 21st Century Biochemicals.
E. coli (BL21(DE3) Gold, Stratagene) made competent by the CaCl2 method were transformed with the PRMT8 construct and ampicillin selection. Protein over-expression was accomplished by growing the PRMT8 expressing E. coli clone and inducing expression with 0.3 mM IPTG at 16° C. The culture was grown for 12 hours, harvested by centrifugation, and stored at −80° C. for purification.
GST-tagged PRMT8 was eluted with 50 mM Tris, 2 mM glutathione, pH 7.8. Pooled fractions were cleaved by thrombin (10 U) and dialysed in buffer A. GST was removed by reloading the cleaved protein sample onto glutathione sepharose column and PRMT8 was collected in the flow-through fractions. PRMT8 was purified further by ceramic hydroxyapatite chromatography. The column was washed with 50 mM phosphate buffer, 100 mM NaCl, 5% glycerol, 5 mM β-mercaptoethanol, pH 7.8 and PRMT8 was eluted by 100 mM phosphate in the same buffer. Protein was concentrated and buffer was exchanged to 50 mM Tris, 300 mM NaCl, 10% glycerol, 5 mM β-mercaptoethanol, pH 7.8 by ultrafiltration.
General Procedure for PRMT8 Enzyme Assays on Peptide Substrates.
(§1) The assays were all performed in a buffer consisting of 20 mM Bicine (pH=7.6), 1 mM TCEP, 0.005% BSG, and 0.002% Tween 20, prepared on the day of use. […] DMSO (1 ul) was added to Columns 11, 12, 23, 24, rows A-H for the maximum signal control and 1 ul of SAH, a known product and inhibitor of PRMT8, was added to columns 11, 12, 23, 24, rows I-P for the minimum signal control. A cocktail (40 ul) containing the PRMT8 enzyme was added by Multidrop Combi (Thermo-Fisher). The compounds were allowed to incubate with PRMT8 for 30 min at room temperature, then a cocktail (10 ul) containing ^3H-SAM and peptide was added to initiate the reaction (final volume=51 ul). […] The assays were stopped by the addition of non-radiolabeled SAM (10 ul) to a final concentration of 400 uM, which dilutes the ^3H-SAM to a level where its incorporation into the peptide substrate is no longer detectable. 50 ul of the reaction in the 384-well polypropylene plate was then transferred to a 384-well Flashplate and the biotinylated peptides were allowed to bind to the streptavidin surface for at least 1 hour before being washed once with 0.1% Tween20 in a Biotek ELx405 plate washer. The plates were then read in a PerkinElmer TopCount plate reader to measure the quantity of ^3H-labeled peptide bound to the Flashplate surface, measured as disintegrations per minute (dpm) or alternatively, referred to as counts per minute (cpm).
(§2) Where dpm=disintegrations per minute, cmpd=signal in assay well, and min and max are the respective minimum and maximum signal controls.
(§3) Where top and bottom are the normally allowed to float, but may be fixed at 100 or 0 respectively in a 3-parameter fit. The Hill Coefficient normally allowed to float but may also be fixed at 1 in a 3-parameter fit. Y is the % inhibition and X is the compound concentration.

Another assay addresses T1, human PRMT1 (Homo sapiens, UniProt Q99873).
T1 construct: GST-tagged PRMT1; made in house; host or cells: High Five insect cells (baculovirus)
The assay can be described thus: PRMT1 Biochemical Assay (3H-SAM Flashplate, peptide substrate). Particulars: single experiment or average of multiple experiments.
Source text: S-adenosylmethionine (SAM), S-adenosylhomocysteine (SAH), bicine, Tween20, dimethylsulfoxide (DMSO), bovine skin gelatin (BSG), and Tris(2-carboxyethyl)phosphine hydrochloride solution (TCEP) were purchased from Sigma-Aldrich at the highest level of purity possible. ^3H-SAM was purchase from American Radiolabeled Chemicals with a specific activity of 80 Ci/mmol. 384-well streptavidin Flashplates were purchased from PerkinElmer.
Recombinant baculovirus were generated according to Bac-to-Bac kit instructions (Life Technologies). […] Infections were carried out at 27° C. for 48 hours, harvested by centrifugation, and stored at −80° C. for purification.
GST-tagged PRMT1 was eluted with 50 mM Tris, 2 mM glutathione, pH 7.8, dialysed in buffer A and concentrated to 1 mg/mL.
General Procedure for PRMT1 Enzyme Assays on Peptide Substrates.
as §1, with “of PRMT1,” for “of PRMT8,”, “the PRMT1” for “the PRMT8”, “with PRMT1” for “with PRMT8”, “containing SAM” for “containing ^3H-SAM”, “of 300” for “of 400”
as §2, §3

The next assay concerns the target T2, human PRMT6 (Homo sapiens, UniProt Q96LA8).
T2 construct: Flag-PRMT6-His; made in house; host or cells: HEK 293F cells (BacMam baculovirus)
The assay is described as follows: PRMT6 Biochemical Assay (3H-SAM Flashplate, peptide substrate). Particulars: Biochemical IC50 PRMT6, single experiment or average of multiple experiments.
Source text: S-adenosylmethionine (SAM), S-adenosylhomocysteine (SAH), bicine, Tween20, dimethylsulfoxide (DMSO), bovine skin gelatin (BSG), sodium butyrate and Tris(2-carboxyethyl)phosphine hydrochloride solution (TCEP) were purchased from Sigma-Aldrich at the highest level of purity possible. ^3H-SAM was purchase from American Radiolabeled Chemicals with a specific activity of 80 Ci/mmol. 384-well streptavidin Flashplates were purchased from PerkinElmer.
Peptide representative of human histone H4 residues 36-50 was synthesized with an N-terminal linker-affinity tag motif and a C-terminal amide cap by 21st Century Biochemicals.
The amplified gene was subcloned into pFastBacMam (Viva Biotech).
Recombinant baculovirus were generated according to Bac-to-Bac kit instructions (Life Technologies). […] Infections were carried out at 37° C. for 48 hours, harvested by centrifugation, and stored at −80° C. for purification.
Column was washed with 20 mM imidazole in the same buffer and Flag-PRMT6-His was eluted with 150 mM imidazole. […] Flag-PRMT6-His was eluted with 200 ug/ml FLAG peptide in the same buffer. Pooled fractions were dialysed in 20 mM Tris, 150 mM NaCl, 10% glycerol and 5 mM β-mercaptoethanol, pH 7.8.
General Procedure for PRMT6 Enzyme Assays on Peptide Substrates.
as §1, with “of PRMT6,” for “of PRMT8,”, “the PRMT6” for “the PRMT8”, “with PRMT6” for “with PRMT8”, “containing SAM” for “containing ^3H-SAM”
as §2, §3

Assay [1] relates to mono-methyl arginine in RKO cells. The assay can be described thus: RKO Methylation Assay, In Cell Western (ICW) for mono-methyl arginine and DNA content. The assay is classed as cell-based. The settings on record: Homo sapiens, RKO, 72 h, read-out: EC30 (In Cell Western data, Numerical, μM). The source says: RKO adherent cells were purchased from ATCC (American Type Culture Collection), Manassas, Va., USA. DMEM/Glutamax medium, penicillin-streptomycin, heat inactivated fetal bovine serum, 0.05% trypsin and D-PBS were purchased from Life Technologies, Grand Island, N.Y., USA. Odyssey blocking buffer, 800CW goat anti-rabbit IgG (H+L) antibody, and Licor Odyssey infrared scanner were purchased from Licor Biosciences, Lincoln, Nebr., USA. Mono-methyl arginine antibody was purchased from Cell Signaling Technology, Danvers, Mass., USA. Methanol was purchased from VWR, Franklin, Mass., USA. 10% Tween 20 was purchased from KPL, Inc., Gaithersburg, Md., USA. DRAQ5 was purchased from Biostatus Limited, Leicestershire, UK.
RKO adherent cells were maintained in growth medium (DMEM/Glutamax medium supplemented with 10% v/v heat inactivated fetal bovine serum and 100 units/mL penicillin-streptomycin) and cultured at 37° C. under 5% CO2.
Cell Treatment, in Cell Western (ICW) for Detection of Mono-Methyl Arginine and DNA Content.
RKO cells were seeded in assay medium at a concentration of 20,000 cells per mL to a poly-D-lysine coated 384 well culture plate (BD Biosciences 356697) with 50 μL per well. Compound (100 nL) from a 96-well source plate was added directly to 384 well cell plate. Plates were incubated at 37° C., 5% CO2 for 72 hours. After three days of incubation, plates were brought to room temperature outside of the incubator for ten minutes and blotted on paper towels to remove cell media. 50 μL of ice cold 100% methanol was added directly to each well and incubated for 30 min at room temperature. After 30 min, plates were transferred to a Biotek EL406 plate washer and washed 2 times with 100 μL per well of wash buffer (1×PBS). Next 60 μL per well of Odyssey blocking buffer (Odyssey Buffer with 0.1% Tween 20 (v/v)) were added to each plate and incubated 1 hour at room temperature. Blocking buffer was removed and 20 μL per well of primary antibody was added (mono-methyl arginine diluted 1:200 in Odyssey buffer with 0.1% Tween 20 (v/v)) and plates were incubated overnight (16 hours) at 4° C. Plates were washed 5 times with 100 μL per well of wash buffer. Next 20 μL per well of secondary antibody was added (1:200 800CW goat anti-rabbit IgG (H+L) antibody, 1:1000 DRAQ5 (Biostatus limited) in Odyssey buffer with 0.1% Tween 20 (v/v)) and incubated for 1 hour at room temperature. The plates were washed 5 times with 100 μL per well wash buffer then 2 times with 100 μL per well of water. Plates were allowed to dry at room temperature then imaged on the Licor Odyssey machine which measures integrated intensity at 700 nm and 800 nm wavelengths. Both 700 and 800 channels were scanned.
First, the ratio for each well was determined by:
Each plate included fourteen control wells of DMSO only treatment (minimum activation) as well as fourteen control wells for maximum activation treated with 20 μM of a reference compound. The average of the ratio values for each control type was calculated and used to determine the percent activation for each test well in the plate. Reference compound was serially diluted three-fold in DMSO for a total of nine test concentrations, beginning at 20 μM. Percent activation was determined and EC30 curves were generated using triplicate wells per concentration of compound.

T2 sequence (Q96LA8 with tags, fused parts or gaps): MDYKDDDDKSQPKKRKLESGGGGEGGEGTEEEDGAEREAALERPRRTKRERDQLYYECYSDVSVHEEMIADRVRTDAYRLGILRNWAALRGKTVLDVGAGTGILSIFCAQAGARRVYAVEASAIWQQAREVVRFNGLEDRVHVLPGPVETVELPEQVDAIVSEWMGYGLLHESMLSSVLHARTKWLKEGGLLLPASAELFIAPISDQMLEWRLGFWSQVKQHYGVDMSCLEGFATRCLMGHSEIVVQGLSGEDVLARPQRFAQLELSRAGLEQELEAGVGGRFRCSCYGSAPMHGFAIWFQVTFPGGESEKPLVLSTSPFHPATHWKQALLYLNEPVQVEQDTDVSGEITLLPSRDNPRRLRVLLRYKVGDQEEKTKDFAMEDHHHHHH
Sequence of human PRMT8 (Q9NR22 whole entry): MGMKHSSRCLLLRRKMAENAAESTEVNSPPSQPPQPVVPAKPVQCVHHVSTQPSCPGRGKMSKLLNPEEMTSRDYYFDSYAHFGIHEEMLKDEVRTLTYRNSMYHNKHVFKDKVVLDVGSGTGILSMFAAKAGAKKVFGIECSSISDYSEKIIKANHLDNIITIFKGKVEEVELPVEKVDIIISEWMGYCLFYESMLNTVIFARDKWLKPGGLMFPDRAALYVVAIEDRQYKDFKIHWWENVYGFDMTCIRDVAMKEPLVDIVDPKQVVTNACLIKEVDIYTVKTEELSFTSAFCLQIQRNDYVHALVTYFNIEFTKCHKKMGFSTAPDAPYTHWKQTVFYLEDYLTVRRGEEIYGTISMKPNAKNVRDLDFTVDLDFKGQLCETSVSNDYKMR
T1 sequence (Q99873 with tags, fused parts or gaps): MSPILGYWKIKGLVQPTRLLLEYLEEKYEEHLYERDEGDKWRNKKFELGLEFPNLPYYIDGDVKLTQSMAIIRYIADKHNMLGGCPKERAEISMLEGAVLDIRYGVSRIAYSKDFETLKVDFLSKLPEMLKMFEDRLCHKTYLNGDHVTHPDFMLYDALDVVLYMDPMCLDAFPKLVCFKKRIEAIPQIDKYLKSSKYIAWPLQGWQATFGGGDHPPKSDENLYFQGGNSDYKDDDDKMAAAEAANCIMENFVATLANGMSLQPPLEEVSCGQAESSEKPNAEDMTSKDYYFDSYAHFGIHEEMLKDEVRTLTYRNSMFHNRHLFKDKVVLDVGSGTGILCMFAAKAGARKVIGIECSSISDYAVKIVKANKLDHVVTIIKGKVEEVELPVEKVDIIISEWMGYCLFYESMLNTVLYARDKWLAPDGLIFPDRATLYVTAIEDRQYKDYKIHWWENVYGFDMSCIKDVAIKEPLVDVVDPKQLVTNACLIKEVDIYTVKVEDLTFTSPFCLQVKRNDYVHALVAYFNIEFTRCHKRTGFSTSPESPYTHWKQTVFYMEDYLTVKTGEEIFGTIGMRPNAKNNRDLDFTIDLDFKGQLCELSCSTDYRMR

On to `CNCCN(C)Cc1c[nH]nc1-c1cc(Cl)ccc1OC` [Compound 53], for which the IC50 against human PRMT8 is 12800 nM; on human PRMT1 it was 3160 nM; against human PRMT6, 968 nM.

With `CNCCN(C)Cc1c[nH]nc1-c1ccccc1Oc1ccccc1` [Compound 36], the IC50 at human PRMT8 was determined as 22400 nM; at human PRMT6, 2440 nM.

Take `CNCCN(C)Cc1c[nH]nc1-c1ccc(Oc2cccc(C(=O)NC)c2)cc1` [Compound 263]: the IC50 against human PRMT1 came to 4.35 nM; against human PRMT6, 1.92 nM. In assay [1], the EC30 stood at 1.29 µM.

With `CCNCCN(C)Cc1c[nH]nc1-c1ccc(F)cc1` [Compound 60], the half-inhibitory concentration (IC50) amounted to 1540 nM against human PRMT8, 170 nM against human PRMT1 and 53.2 nM against human PRMT6.

Consider `CN(CCN)Cc1cnn(CC(O)CO)c1-c1ccc(F)cc1` (centres unmarked) [Compound 113], for which the IC50 against human PRMT8 stood at 8520 nM; against human PRMT1, 1490 nM; on human PRMT6, 594 nM.

`CN(CCN)Cc1c[nH]nc1-c1cc(F)ccc1Cl` [Compound 106]: the concentration for half-maximal inhibition (IC50) was found to be 3110 nM on human PRMT8, 336 nM against human PRMT1 and 49.8 nM against human PRMT6.

Consider `CNCCN(C)Cc1c[nH]nc1-c1ccccc1OC(F)(F)F` [Compound 40], for which the IC50 stood at 6760 nM on human PRMT8, 700 nM against human PRMT1 and 680 nM against human PRMT6.

As for `CN(CCNC1CC1)Cc1c[nH]nc1-c1ccc(C#N)cc1` [Compound 183], the IC50 at human PRMT8 turned out to be 4820 nM; against human PRMT1, 2420 nM; against human PRMT6 it was 260 nM.

On to `CNCCN(C)Cc1c[nH]nc1-c1cccc(OC)c1OC` [Compound 54], for which the IC50 on human PRMT8 was 7500 nM; against human PRMT1, 569 nM; against human PRMT6 it was 182 nM.

Consider `CC(C)CC(=O)N1CCN(c2ccc(-c3n[nH]cc3CN(C)CCN)cc2)CC1` [Compound 180], for which the IC50 at human PRMT8 amounted to 5790 nM; at human PRMT1, 648 nM; against human PRMT6, 20.5 nM.
